Laboratory results: patent US9957232B2, “4-[4-({[4-chloro-3-(trifluoromethyl)phenyl]carbamoyl}amino)-3-fluorophenoxy]-N-methylpyridine-2-carboxamide monohydrate” (BAYER HEALTHCARE LLC, priority 2006, dated 2018)

Assay: stability in the manufacture of pharmaceutical compositions
Format: physicochemical
Conditions: monohydrate form; qualitative statement, no test described

stability in the manufacture of pharmaceutical compositions: high stability
SMILES: CNC(=O)c1cc(Oc2ccc(NC(=O)Nc3ccc(Cl)c(C(F)(F)F)c3)c(F)c2)ccn1 [compound of the formula (II), 4-[4-({[4-chloro-3-(trifluoromethyl)phenyl]carbamoyl}amino)-3-fluorophenoxy]-N-methylpyridine-2-carboxamide monohydrate]
